Laboratory results taken from patent EP1171107B1, “USE OF A PHARMACEUTICAL COMPOSITION IN THE MANUFACTURE OF A MEDICAMENT FOR THE TREATMENT OF PATHOLOGICAL CONDITIONS OF THE EYE CAUSED BY BACTERIA, VIRUSES, FUNGI, YEASTS AND PROTOZOA” (Dr. GERHARD MANN chem.-pharm. Fabrik GmbH, priority 1999, dated 2000).

How the values were obtained:
Format in all cases: cell-based
[1] = tested on: H.influenzae; assay: Qualitative examination: enrichment of the inoculated test preparation in broth
Excerpt: (§1) Escherichia (E.coli) Staphylococcus (S.aureus) Streptococcus (Sc.) Pneumoniae Pseudomonas (P.aeruginosa) Staphylococcus (S. epidermidis) Haemophilus (H. influenzae)
(§2) Die verschiedenen Testkeime wurde jeweils aus einem Lyophilisat in NaCl-Peptonpuffer homogenisiert und auf Caseinpepton-Sojymehlpepton. (Caso-) Agar (Fa. bioMérieux; Art. Nr. 43019) bez. Kochblut-Agar (Fa. bioMérieux; Art. Nr. 43109) subkultiviert. Die Teststämme wurden vor Versuchsbeginn durch Erstellen eines biochemischen Profils mittels ATB/Vitek-System (Fa. bioMérieux, Nürtingen) auf Reinheit und Identität überprüft.
(§3) Die verschiedenen Testsubstanzen a. bis j. wurden jeweils zu 5 ml in sterile Zentrifugenröhrchen abgefüllt und mit ca. 10^5 KBE^*/ml (* = koloniebildende Einheiten) der oben genannten Testkeime kontaminiert. Pro Substanz wurde für jeden Testkeim und jede zu prüfende Testzeit ein separater Ansatz angeimpft, d.h.10 Testsubstanzen zu jeweils 7 Testzeiten und 6 Testkeime (= insgesamt 502 Testansätze). Nach 2, 6, 8, 24, 32, 48 und 72 Stunden wurde dann der jeweilige Testansatz 10 Minuten bei 3000 rpm abzentrifugiert. Der Überstand wurde dekantiert und das Pellet in 5 ml NaCl Peptonpuffer aufgenommen und resuspendiert. Die Suspension wurde erneut 10 Minuten bei 3000 rpm abzentrifugiert und 5 ml NaCl-Peptonpuffer aufgenommen und mittels Vortex homogenisiert.
(§4) Jeweils 2 ml der Testansätze wurden in 20 ml Caso-Bouillon oder für H. influenzae, in Fildes-Medium der Firma Becton Dickinson, ARt. Nr. 0349-739, angereichert und ebenfalls maximal 4 Tage bei 33± 2°C bebrütet. Ein negatives Ergebnis der Anreicherung belegt die Elimination der inokulierten Keime.

[2] = tested on: P.aeruginosa; assay: as above
Excerpt: as §1, §2, §3, §4

[3] = tested on: Sc. pneumoniae; assay: as above
Excerpt: as §1, §2
as §3, with “Nach 2, 6, 8, 24, 32, 48 und 72 Stunden wurde dann der jeweilige Testansatz 10 Minuten bei 3000 rpm abzentrifugiert.” left out
as §4

[4] = tested on: E.coli; assay: as above
Excerpt: as §1, §2
as §3, with “Nach 2, 6, 8, 24, 32, 48 und 72 Stunden wurde dann der jeweilige Testansatz 10 Minuten bei 3000 rpm abzentrifugiert.” left out
as §4

[5] = tested on: S.aureus; assay: as above
Excerpt: as §1, §2
as §3, with “Nach 2, 6, 8, 24, 32, 48 und 72 Stunden wurde dann der jeweilige Testansatz 10 Minuten bei 3000 rpm abzentrifugiert.” left out
as §4

[6] = tested on: S.epidermidis; assay: as above
Excerpt: as §1, §2
as §3, with “Nach 2, 6, 8, 24, 32, 48 und 72 Stunden wurde dann der jeweilige Testansatz 10 Minuten bei 3000 rpm abzentrifugiert.” left out
as §4

[7] = tested on: H.influenzae; assay: Quantitative germ count (re-isolation, surface method) after inoculating the test preparation; conditions: Ausgangskeimzahl 2,8 x 10^5 KBE/ml
Excerpt: as §1, §2
(§5) Die Ausgangskeimzahl wurde im Oberflächenverfahren mit Hilfe eines Spiralplaters (Fa. Meintrup, Lähden) ermittelt und ist im einzelnen den Tabellen 1-12 zu entnehmen.
as §3, with “Nach 2, 6, 8, 24, 32, 48 und 72 Stunden wurde dann der jeweilige Testansatz 10 Minuten bei 3000 rpm abzentrifugiert.” left out
(§6) Die anschließende Keimzahlbestimmung erfolgte im Oberflächenverfahren durch Ausspiralisieren eines […] Aliquots auf Caso-Agar bzw. für H. influenzae auf Kochblut-Agar. Die Platten wurden bei 33±2°C für max. 4 Tage bebrütet. Die Nachweisgrenze des Verfahrens liegt bei 100 KBE/ml.

[8] = tested on: Sc. pneumoniae; assay: as above; conditions: Ausgangskeimzahl 3,7 x 10^5 KBE/ml
Excerpt: as §1, §2, §5
as §3, with “Nach 2, 6, 8, 24, 32, 48 und 72 Stunden wurde dann der jeweilige Testansatz 10 Minuten bei 3000 rpm abzentrifugiert.” left out
as §6

[9] = tested on: E.coli; assay: as above; conditions: Ausgangskeimzahl 2,7 x 10^5 KBE/ml
Excerpt: as §1, §2, §5
as §3, with “Nach 2, 6, 8, 24, 32, 48 und 72 Stunden wurde dann der jeweilige Testansatz 10 Minuten bei 3000 rpm abzentrifugiert.” left out
as §6

[10] = tested on: S.aureus; assay: as above; conditions: Ausgangskeimzahl 2,6 x 10^5 KBE/ml
Excerpt: as §1, §2, §5
as §3, with “Nach 2, 6, 8, 24, 32, 48 und 72 Stunden wurde dann der jeweilige Testansatz 10 Minuten bei 3000 rpm abzentrifugiert.” left out
as §6

[11] = tested on: S.epidermidis; assay: as above; conditions: Ausgangskeimzahl 2,1 x 10^5 KBE/ml
Excerpt: as §1, §2, §5, §3, §6

CC1COc2c(N3CCN(C)CC3)c(F)cc3c(=O)c(C(=O)O)cn1c23 (stereo not shown) [Ofloxacin 0,3 Gew.-%, Ofloxacin, reference compound]
-: Ergebnis der Reisolierung qualitiativ (+/-) nach Anreicherung ([1]; 2 h after inoculation) | Ergebnis der Reisolierung qualitiativ (+/-) nach Anreicherung ([1]; 4 h after inoculation) | Ergebnis der Reisolierung qualitiativ (+/-) nach Anreicherung ([1]; 6 h after inoculation) | Ergebnis der Reisolierung qualitiativ (+/-) nach Anreicherung ([1]; 8 h after inoculation) | Ergebnis der Reisolierung qualitiativ (+/-) nach Anreicherung ([1]; 24 h after inoculation) | Ergebnis der Reisolierung qualitiativ (+/-) nach Anreicherung ([1]; 32 h after inoculation) | Ergebnis der Reisolierung qualitiativ (+/-) nach Anreicherung ([1]; 48 h after inoculation) | Ergebnis der Reisolierung qualitiativ (+/-) nach Anreicherung ([1]; 72 h after inoculation) | Ergebnis der Reisolierung qualitiativ (+/-) nach Anreicherung ([2]; 2 h after inoculation) | Ergebnis der Reisolierung qualitiativ (+/-) nach Anreicherung ([2]; 6 h after inoculation) | Ergebnis der Reisolierung qualitiativ (+/-) nach Anreicherung ([2]; 8 h after inoculation) | Ergebnis der Reisolierung qualitiativ (+/-) nach Anreicherung ([2]; 24 h after inoculation) | Ergebnis der Reisolierung qualitiativ (+/-) nach Anreicherung ([2]; 32 h after inoculation) | Ergebnis der Reisolierung qualitiativ (+/-) nach Anreicherung ([2]; 48 h after inoculation) | Ergebnis der Reisolierung qualitiativ (+/-) nach Anreicherung ([2]; 72 h after inoculation) | Ergebnis der Reisolierung qualitiativ (+/-) nach Anreicherung ([3]; 2 h after inoculation) | Ergebnis der Reisolierung qualitiativ (+/-) nach Anreicherung ([3]; 6 h after inoculation) | Ergebnis der Reisolierung qualitiativ (+/-) nach Anreicherung ([3]; 8 h after inoculation) | Ergebnis der Reisolierung qualitiativ (+/-) nach Anreicherung ([3]; 24 h after inoculation) | Ergebnis der Reisolierung qualitiativ (+/-) nach Anreicherung ([3]; 32 h after inoculation) | Ergebnis der Reisolierung qualitiativ (+/-) nach Anreicherung ([3]; 48 h after inoculation) | Ergebnis der Reisolierung qualitiativ (+/-) nach Anreicherung ([3]; 72 h after inoculation) | Ergebnis der Reisolierung qualitiativ (+/-) nach Anreicherung ([4]; 2 h after inoculation) | Ergebnis der Reisolierung qualitiativ (+/-) nach Anreicherung ([4]; 4 h after inoculation) | Ergebnis der Reisolierung qualitiativ (+/-) nach Anreicherung ([4]; 6 h after inoculation) | Ergebnis der Reisolierung qualitiativ (+/-) nach Anreicherung ([4]; 8 h after inoculation) | Ergebnis der Reisolierung qualitiativ (+/-) nach Anreicherung ([4]; 24 h after inoculation) | Ergebnis der Reisolierung qualitiativ (+/-) nach Anreicherung ([4]; 32 h after inoculation) | Ergebnis der Reisolierung qualitiativ (+/-) nach Anreicherung ([4]; 48 h after inoculation) | Ergebnis der Reisolierung qualitiativ (+/-) nach Anreicherung ([4]; 72 h after inoculation) | Ergebnis der Reisolierung qualitiativ (+/-) nach Anreicherung ([5]; 8 h after inoculation) | Ergebnis der Reisolierung qualitiativ (+/-) nach Anreicherung ([5]; 24 h after inoculation) | Ergebnis der Reisolierung qualitiativ (+/-) nach Anreicherung ([5]; 32 h after inoculation) | Ergebnis der Reisolierung qualitiativ (+/-) nach Anreicherung ([5]; 48 h after inoculation) | Ergebnis der Reisolierung qualitiativ (+/-) nach Anreicherung ([5]; 72 h after inoculation) | Ergebnis der Reisolierung qualitiativ (+/-) nach Anreicherung ([6]; 8 h after inoculation) | Ergebnis der Reisolierung qualitiativ (+/-) nach Anreicherung ([6]; 24 h after inoculation) | Ergebnis der Reisolierung qualitiativ (+/-) nach Anreicherung ([6]; 32 h after inoculation) | Ergebnis der Reisolierung qualitiativ (+/-) nach Anreicherung ([6]; 48 h after inoculation) | Ergebnis der Reisolierung qualitiativ (+/-) nach Anreicherung ([6]; 72 h after inoculation)
+: Ergebnis der Reisolierung qualitiativ (+/-) nach Anreicherung ([2]; 4 h after inoculation) | Ergebnis der Reisolierung qualitiativ (+/-) nach Anreicherung ([3]; 4 h after inoculation) | Ergebnis der Reisolierung qualitiativ (+/-) nach Anreicherung ([5]; 2 h after inoculation) | Ergebnis der Reisolierung qualitiativ (+/-) nach Anreicherung ([5]; 4 h after inoculation) | Ergebnis der Reisolierung qualitiativ (+/-) nach Anreicherung ([5]; 6 h after inoculation) | Ergebnis der Reisolierung qualitiativ (+/-) nach Anreicherung ([6]; 2 h after inoculation) | Ergebnis der Reisolierung qualitiativ (+/-) nach Anreicherung ([6]; 4 h after inoculation) | Ergebnis der Reisolierung qualitiativ (+/-) nach Anreicherung ([6]; 6 h after inoculation)
<100 KBE/ml: Ergebnis der Reisolierung (in KBE/ml) ([7]; 2 h after inoculation) | Ergebnis der Reisolierung (in KBE/ml) ([7]; 4 h after inoculation) | Ergebnis der Reisolierung (in KBE/ml) ([7]; 6 h after inoculation) | Ergebnis der Reisolierung (in KBE/ml) ([7]; 8 h after inoculation) | Ergebnis der Reisolierung (in KBE/ml) ([7]; 24 h after inoculation) | Ergebnis der Reisolierung (in KBE/ml) ([7]; 32 h after inoculation) | Ergebnis der Reisolierung (in KBE/ml) ([7]; 48 h after inoculation) | Ergebnis der Reisolierung (in KBE/ml) ([7]; 72 h after inoculation) | Ergebnis der Reisolierung (in KBE/ml) ([8]; 2 h after inoculation) | Ergebnis der Reisolierung (in KBE/ml) ([8]; 4 h after inoculation) | Ergebnis der Reisolierung (in KBE/ml) ([8]; 6 h after inoculation) | Ergebnis der Reisolierung (in KBE/ml) ([8]; 8 h after inoculation) | Ergebnis der Reisolierung (in KBE/ml) ([8]; 24 h after inoculation) | Ergebnis der Reisolierung (in KBE/ml) ([8]; 32 h after inoculation) | Ergebnis der Reisolierung (in KBE/ml) ([8]; 48 h after inoculation) | Ergebnis der Reisolierung (in KBE/ml) ([8]; 72 h after inoculation) | Ergebnis der Reisolierung (in KBE/ml) ([9]; 2 h after inoculation) | Ergebnis der Reisolierung (in KBE/ml) ([9]; 4 h after inoculation) | Ergebnis der Reisolierung (in KBE/ml) ([9]; 6 h after inoculation) | Ergebnis der Reisolierung (in KBE/ml) ([9]; 8 h after inoculation) | Ergebnis der Reisolierung (in KBE/ml) ([9]; 24 h after inoculation) | Ergebnis der Reisolierung (in KBE/ml) ([9]; 32 h after inoculation) | Ergebnis der Reisolierung (in KBE/ml) ([9]; 48 h after inoculation) | Ergebnis der Reisolierung (in KBE/ml) ([9]; 72 h after inoculation) | Ergebnis der Reisolierung (in KBE/ml) ([10]; 2 h after inoculation) | Ergebnis der Reisolierung (in KBE/ml) ([10]; 4 h after inoculation) | Ergebnis der Reisolierung (in KBE/ml) ([10]; 6 h after inoculation) | Ergebnis der Reisolierung (in KBE/ml) ([10]; 8 h after inoculation) | Ergebnis der Reisolierung (in KBE/ml) ([10]; 24 h after inoculation) | Ergebnis der Reisolierung (in KBE/ml) ([10]; 32 h after inoculation) | Ergebnis der Reisolierung (in KBE/ml) ([10]; 48 h after inoculation) | Ergebnis der Reisolierung (in KBE/ml) ([10]; 72 h after inoculation) | Ergebnis der Reisolierung (in KBE/ml) ([11]; 2 h after inoculation) | Ergebnis der Reisolierung (in KBE/ml) ([11]; 4 h after inoculation) | Ergebnis der Reisolierung (in KBE/ml) ([11]; 6 h after inoculation) | Ergebnis der Reisolierung (in KBE/ml) ([11]; 8 h after inoculation) | Ergebnis der Reisolierung (in KBE/ml) ([11]; 24 h after inoculation) | Ergebnis der Reisolierung (in KBE/ml) ([11]; 32 h after inoculation) | Ergebnis der Reisolierung (in KBE/ml) ([11]; 48 h after inoculation) | Ergebnis der Reisolierung (in KBE/ml) ([11]; 72 h after inoculation)
